Source: ChEMBL document CHEMBL2440076, “New triarylpyrazoles as broad-spectrum anticancer agents: design, synthesis, and biological evaluation” (Eur J Med Chem, 2013)

How the values were obtained:
NCI-H460 = experiment: Growth inhibition of human NCI-H460 cells after 48 hrs by sulforhodamine B assay; type: functional; conditions: NCI-H460, 48 h
A549 [1] = experiment: Growth inhibition of human A549/ATCC cells after 48 hrs by sulforhodamine B assay; type: functional; conditions: A549, 48 h
A549 [2] = experiment: Growth inhibition of human A549/ATCC cells assessed as cell growth at 10 uM after 48 hrs by sulforhodamine B assay; type: functional; conditions: A549, 48 h, read-out: Activity
SK-OV-3 = experiment: Growth inhibition of human SKOV3 cells assessed as cell growth at 10 uM after 48 hrs by sulforhodamine B assay; type: functional; conditions: SK-OV-3, 48 h, read-out: Activity
HT-29 [3] = experiment: Growth inhibition of human HT-29 cells after 48 hrs by sulforhodamine B assay; type: functional; conditions: HT-29, 48 h; for CC50: read-out: LC50 (the source's name)
IGROV-1 = experiment: Growth inhibition of human IGROV1 cells after 48 hrs by sulforhodamine B assay; type: functional; conditions: IGROV-1, 48 h
NCI-H23 = experiment: Growth inhibition of human NCI-H23 cells assessed as cell growth at 10 uM after 48 hrs by sulforhodamine B assay; type: functional; conditions: NCI-H23, 48 h, read-out: Activity
NCI-H226 [4] = experiment: Growth inhibition of human NCI-H226 cells assessed as cell growth at 10 uM after 48 hrs by sulforhodamine B assay; type: functional; conditions: NCI-H226, 48 h, read-out: Activity
[5] = Growth inhibition of human NCI-ADR-RES cells after 48 hrs by sulforhodamine B assay; type: functional; conditions: for CC50: read-out: LC50 (the source's name)
[6] = Growth inhibition of human HCC2998 cells after 48 hrs by sulforhodamine B assay; type: functional; conditions: HCC 2998, 48 h; for CC50: read-out: LC50 (the source's name)
T47D = experiment: Growth inhibition of human T47D cells after 48 hrs by sulforhodamine B assay; type: functional; conditions: for CC50: read-out: LC50 (the source's name)
MCF7 = experiment: Growth inhibition of human MCF7 cells after 48 hrs by sulforhodamine B assay; type: functional; conditions: MCF7, 48 h
SK-MEL-28 = experiment: Growth inhibition of human SK-MEL-28 cells assessed as cell growth at 10 uM after 48 hrs by sulforhodamine B assay; type: functional; conditions: SK-MEL-28, 48 h, read-out: Activity
SNB-19 = experiment: Growth inhibition of human SNB19 cells assessed as cell growth at 10 uM after 48 hrs by sulforhodamine B assay; type: functional; conditions: SNB-19, 48 h, read-out: Activity
HOP-62 = experiment: Growth inhibition of human HOP62 cells assessed as cell growth at 10 uM after 48 hrs by sulforhodamine B assay; type: functional; conditions: HOP-62, 48 h, read-out: Activity
HT-29 [7] = experiment: Growth inhibition of human HT-29 cells assessed as cell growth at 10 uM after 48 hrs by sulforhodamine B assay; type: functional; conditions: HT-29, 48 h, read-out: Activity
UACC-257 = experiment: Growth inhibition of human UACC257 cells assessed as cell growth at 10 uM after 48 hrs by sulforhodamine B assay; type: functional; conditions: UACC-257, 48 h, read-out: Activity
HCT-116 = experiment: Growth inhibition of human HCT116 cells assessed as cell growth at 10 uM after 48 hrs by sulforhodamine B assay; type: functional; conditions: HCT-116, 48 h, read-out: Activity
MDA-MB-468 = experiment: Growth inhibition of human MDA-MB-468 cells after 48 hrs by sulforhodamine B assay; type: functional, cell-based; conditions: MDA-MB-468, 48 h; for CC50: read-out: LC50 (the source's name)
U-251 [8] = experiment: Growth inhibition of human U251 cells after 48 hrs by sulforhodamine B assay; type: functional; conditions: U-251, 48 h
SNB-75 = experiment: Growth inhibition of human SNB75 cells after 48 hrs by sulforhodamine B assay; type: functional; conditions: SNB-75, 48 h
786-0 = experiment: Growth inhibition of human 786-0 cells assessed as cell growth at 10 uM after 48 hrs by sulforhodamine B assay; type: functional; conditions: 786-0, 48 h, read-out: Activity
U-251 [9] = experiment: Growth inhibition of human U251 cells assessed as cell growth at 10 uM after 48 hrs by sulforhodamine B assay; type: functional; conditions: U-251, 48 h, read-out: Activity
SW-620 = experiment: Growth inhibition of human SW620 cells after 48 hrs by sulforhodamine B assay; type: functional; conditions: SW-620, 48 h; for CC50: read-out: LC50 (the source's name)
PC-3 = experiment: Growth inhibition of human PC3 cells assessed as cell growth at 10 uM after 48 hrs by sulforhodamine B assay; type: functional; conditions: PC-3, 48 h, read-out: Activity
OVCAR-3 = experiment: Growth inhibition of human OVCAR3 cells after 48 hrs by sulforhodamine B assay; type: functional, cell-based; conditions: OVCAR-3, 48 h; for CC50: read-out: LC50 (the source's name)
HL-60(TB) = experiment: Growth inhibition of human HL-60(TB) cells assessed as cell growth at 10 uM after 48 hrs by sulforhodamine B assay; type: functional; conditions: HL-60, 48 h, read-out: Activity
NCI-H226 [10] = experiment: Growth inhibition of human NCI-H226 cells after 48 hrs by sulforhodamine B assay; type: functional; conditions: NCI-H226, 48 h; for CC50: read-out: LC50 (the source's name)
HOP-92 = experiment: Growth inhibition of human HOP92 cells after 48 hrs by sulforhodamine B assay; type: functional, cell-based; conditions: HOP-92, 48 h
A498 = experiment: Growth inhibition of human A498 cells after 48 hrs by sulforhodamine B assay; type: functional, cell-based; conditions: A498, 48 h; for CC50: read-out: LC50 (the source's name)
ACHN = experiment: Growth inhibition of human ACHN cells after 48 hrs by sulforhodamine B assay; type: functional; conditions: for CC50: read-out: LC50 (the source's name)
SF-539 = experiment: Growth inhibition of human SF539 cells after 48 hrs by sulforhodamine B assay; type: functional; conditions: SF-539, 48 h
SF-295 = experiment: Growth inhibition of human SF295 cells after 48 hrs by sulforhodamine B assay; type: functional, cell-based; conditions: SF-295, 48 h; for CC50: read-out: LC50 (the source's name)

COc1cc(-c2nn(-c3cccc(NC(=O)c4ccccc4)c3)cc2-c2ccncc2)ccc1Cl
GI50 (NCI-H460): 0.394 µM
LC50 (NCI-H460): > 100 µM
TGI (NCI-H460): > 100 µM
GI50 (A549 [1]): 0.585 µM
LC50 (concentration killing 50% of starting cells) (A549 [1]): > 100 µM
TGI (A549 [1]): > 100 µM
growth at 10 µM (A549 [2]): 4.81%
growth at 10 µM (SK-OV-3): 42.1%
GI50 (HT-29 [3]): 0.392 µM
TGI (HT-29 [3]): > 100 µM
CC50 (HT-29 [3]): > 100 µM
GI50 (IGROV-1): 0.534 µM
LC50 (concentration killing 50% of cells) (IGROV-1): > 100 µM
TGI (IGROV-1): > 100 µM
growth at 10 µM (NCI-H23): 33.8%
growth at 10 µM (NCI-H226 [4]): 39.1%
GI50 [5]: 0.448 µM
TGI [5]: > 100 µM
CC50 [5]: > 100 µM
GI50 [6]: 2.32 µM
TGI [6]: 22.4 µM
CC50 [6]: > 100 µM
GI50 (T47D): 1.9 µM
TGI (T47D): > 100 µM
CC50 (T47D): > 100 µM
GI50 (MCF7): 0.335 µM
LC50 (MCF7): > 100 µM
TGI (MCF7): > 100 µM
growth at 10 µM (SK-MEL-28): 34.4%
growth at 10 µM (SNB-19): 50%
growth at 10 µM (HOP-62): 27.1%
growth at 10 µM (HT-29 [7]): 2.03%
growth at 10 µM (UACC-257): 8.64%
growth at 10 µM (HCT-116): 8.58%
GI50 (MDA-MB-468): 0.349 µM
IC50 (MDA-MB-468): 0.35 µM
TGI (MDA-MB-468): 3.42 µM
CC50 (MDA-MB-468): > 100 µM
GI50 (U-251 [8]): 0.661 µM
LC50 (concentration killing 50% of cells) (U-251 [8]): > 100 µM
TGI (U-251 [8]): 30.8 µM
GI50 (SNB-75): 0.575 µM
LC50 (lethal concentration, 50% net cell kill) (SNB-75): > 100 µM
TGI (SNB-75): > 100 µM
growth at 10 µM (786-0): 21.3%
growth at 10 µM (U-251 [9]): 13.5%
GI50 (SW-620): 0.551 µM
TGI (SW-620): > 100 µM
CC50 (SW-620): > 100 µM
growth at 10 µM (PC-3): 10.5%
GI50 (OVCAR-3): 0.334 µM
IC50 (OVCAR-3): 0.33 µM
TGI (OVCAR-3): 10.9 µM
CC50 (OVCAR-3): 95.8 µM
growth at 10 µM (HL-60(TB)): -18.8%
GI50 (NCI-H226 [10]): 2.35 µM
TGI (NCI-H226 [10]): > 100 µM
CC50 (NCI-H226 [10]): > 100 µM
GI50 (HOP-92): 0.324 µM
IC50 (HOP-92): 0.32 µM
LC50 (HOP-92): > 100 µM
TGI (HOP-92): 4.71 µM
GI50 (A498): 0.361 µM
IC50 (A498): 0.36 µM
TGI (A498): 3.14 µM
CC50 (A498): > 100 µM
GI50 (ACHN): 0.754 µM
TGI (ACHN): > 100 µM
CC50 (ACHN): > 100 µM
GI50 (SF-539): 0.387 µM
LC50 (concentration killing 50% of cells) (SF-539): > 100 µM
TGI (SF-539): 2.88 µM
GI50 (SF-295): 0.337 µM
IC50 (SF-295): 0.34 µM
TGI (SF-295): 2.26 µM
CC50 (SF-295): > 100 µM

COc1cc(-c2nn(-c3cccc(NC(=O)c4ccc(Cl)c(C(F)(F)F)c4)c3)cc2-c2ccncc2)ccc1Cl
GI50 (NCI-H460): 3.47 µM
LC50 (NCI-H460): > 32.5 µM
TGI (NCI-H460): > 32.5 µM
GI50 (A549 [1]): 2.4 µM
LC50 (concentration killing 50% of starting cells) (A549 [1]): > 32.5 µM
TGI (A549 [1]): > 32.5 µM
growth at 10 µM (A549 [2]): 23.3%
growth at 10 µM (SK-OV-3): 64.3%
GI50 (HT-29 [3]): 3.38 µM
TGI (HT-29 [3]): > 32.5 µM
CC50 (HT-29 [3]): > 32.5 µM
GI50 (IGROV-1): 2.15 µM
LC50 (concentration killing 50% of cells) (IGROV-1): > 32.5 µM
TGI (IGROV-1): > 32.5 µM
growth at 10 µM (NCI-H23): 58.9%
growth at 10 µM (NCI-H226 [4]): 56.3%
GI50 [5]: 1.29 µM
TGI [5]: 11.2 µM
CC50 [5]: > 32.5 µM
GI50 [6]: 7.86 µM
TGI [6]: > 32.5 µM
CC50 [6]: > 32.5 µM
GI50 (T47D): 2.05 µM
TGI (T47D): > 32.5 µM
CC50 (T47D): > 32.5 µM
GI50 (MCF7): 2.24 µM
LC50 (MCF7): > 32.5 µM
TGI (MCF7): > 32.5 µM
growth at 10 µM (SK-MEL-28): 41.6%
growth at 10 µM (SNB-19): 66%
growth at 10 µM (HOP-62): 53%
growth at 10 µM (HT-29 [7]): 50.1%
growth at 10 µM (UACC-257): 23.5%
growth at 10 µM (HCT-116): 24%
GI50 (MDA-MB-468): 3.69 µM
IC50 (MDA-MB-468): 3.69 µM
TGI (MDA-MB-468): > 32.5 µM
CC50 (MDA-MB-468): > 32.5 µM
GI50 (U-251 [8]): 3.1 µM
LC50 (concentration killing 50% of cells) (U-251 [8]): > 32.5 µM
TGI (U-251 [8]): > 32.5 µM
GI50 (SNB-75): 2.19 µM
LC50 (lethal concentration, 50% net cell kill) (SNB-75): > 32.5 µM
TGI (SNB-75): 29.2 µM
growth at 10 µM (786-0): 59.5%
growth at 10 µM (U-251 [9]): 32.5%
GI50 (SW-620): 4.75 µM
TGI (SW-620): > 32.5 µM
CC50 (SW-620): > 32.5 µM
growth at 10 µM (PC-3): 18.6%
GI50 (OVCAR-3): 2.42 µM
IC50 (OVCAR-3): 2.42 µM
TGI (OVCAR-3): 19.8 µM
CC50 (OVCAR-3): > 32.5 µM
growth at 10 µM (HL-60(TB)): 3.23%
GI50 (NCI-H226 [10]): 5.9 µM
TGI (NCI-H226 [10]): > 32.5 µM
CC50 (NCI-H226 [10]): > 32.5 µM
GI50 (HOP-92): 0.665 µM
IC50 (HOP-92): 0.67 µM
LC50 (HOP-92): > 32.5 µM
TGI (HOP-92): 3.23 µM
GI50 (A498): 2.7 µM
IC50 (A498): 2.7 µM
TGI (A498): 22.7 µM
CC50 (A498): > 32.5 µM
GI50 (ACHN): 2.73 µM
TGI (ACHN): > 32.5 µM
CC50 (ACHN): > 32.5 µM
GI50 (SF-539): 4.13 µM
LC50 (concentration killing 50% of cells) (SF-539): > 32.5 µM
TGI (SF-539): 20.3 µM
GI50 (SF-295): 1.38 µM
IC50 (SF-295): 1.38 µM
TGI (SF-295): 17.3 µM
CC50 (SF-295): > 32.5 µM
